“Also recorded” adds a separate entry of the source.

The subject of assay [1] is PSC27. The assay is described as follows: Population doubling (PD) test of PSC27. The format is cell-based, human. How it is done: The cells were damaged by BLEO at passage 10 (p10), and then SAE was added to the medium at day 8. The effect SAE on cell proliferation potential is determined by comparative analysis of the population doubling (PD) of CTRL group, BLEO group, SAE group and BLEO/SAE group. ^, P>0.05; ***P<0.001.

Another assay deals with SASP. The assay is described as follows: qRT-PCR of typical SASP molecules in BLEO-induced senescent PSC27 cells at different SAE concentrations. It counts as cell-based, human. Here is the method: All data are normalized results compared to the CTRL group. *P<0.05, **P<0.01, ***P<0.001.
To cause cell damage, 50 μg/mL bleomycin (bleomycin, BLEO) was added to the culture medium when PSC27 cells grew to 80% (abbreviated as PSC27-CTRL). After 12 hours of drug treatment, the cells were simply washed 3 times with PBS, left in the culture medium for 7-10 days, and then the subsequent experiments were performed.
Total RNA of cells in the growth phase or stasis phase was extracted with Trizol reagent. 1 mL Trizol was added to each T25 culture flask. The cell layer was scraped off with a cell scraper, transferred into a centrifuge tube and mixed well until not viscous. […]
Samples were loaded according to the above standard, and the reaction conditions were: 95° C. pre-denaturation for 15 seconds, then 95° C. for 5 seconds, 60° C. for 31 seconds, 40 cycles; melting curve conditions were 95° C. for 15 seconds, 60° C. for 30 seconds, 95° C. for 15 seconds. […] After the reaction was completed, the amplification of each gene was checked by software analysis, the corresponding threshold cycle number was derived, and the relative expression of each gene was calculated using the 2-ΔΔCt method. The peak and waveform of the melting curve was analyzed to determine whether the obtained amplification product was a specific single target fragment.
In general terms: Quantitative PCR measures a nucleic acid by following its amplification.

Another assay deals with PC3/PSC27 tumors. The assay is described as follows: Disease-free survival of tumor-bearing NOD/SCID mice. The format is in vivo, mouse. The conditions noted are these: severe disease at tumor size ≥2000 mm3. The text has this: When the tumor volume in the vehicle, MIT, SAE and MIT/SAE groups exceeds 2000 mm3, it is considered that severe disease has occurred, and the mice need to be killed in time and the tumor bearing status should be detected. ^, P>0.05; **, P<0.01.
Then the survival of animals in different drug-treated groups was compared, primarily in a time-prolonged manner to assess the consequences of tumor progression. In this preclinical cohort, animals were monitored for prostate tumor growth, and severe disease was judged to have occurred once the […] tumor burden in mice was prominent (size≥2000 mm3), which was a method used for assessing progression of tumors and other diseases in certain conditions.

For a further assay, the system named is SASP factors. The assay is described as follows: LCM and qRT-PCR of SASP factors in mouse lesions. The format is in vivo. The settings on record: MIT/SAE vs MIT. Here is the method: The stromal cells and cancer cells were specifically separated by LCM technology, total RNA was prepared and used for SASP expression detection. ^, P>0.05; *, P<0.05; **, P<0.01.
In a preclinical treatment trial, subcutaneously transplanted mice were fed with a standard experimental diet, after 2 weeks chemotherapy drugs mitoxantrone (MIT, dose: 0.2 mg/kg) and/or SAE (500 μl, dose: 10 mg/kg) via intraperitoneal administration. The time points were: the former was administrated on the first day of the 3rd, 5th and 7th weeks, and the latter was administrated on the first day of the 5th and 7th weeks. A total of 3 cycles of MIT administration were carried out throughout the course of treatment, and each cycle lasted for 2 weeks. After the course of treatment, mouse tumors were harvested for volume measurement and histological analysis. Each mouse cumulatively received 0.6 mg/kg body weight of MIT and 30 mg/kg body weight of SAE. In order to cause systemic expression of SASP factors induced by chemotherapy, MIT was administered to mice through intravenous infusion according to the above steps and sequence, but the dose was reduced to 0.1 mg/kg body weight/each time (the cumulative dose of MIT received in the whole course of treatment was 0.3 mg/kg body weight) to reduce drug-related toxicity. […]

Assay [2] concerns PC3/PSC27 transplanted tumors. The assay is described as follows: PC3/PSC27 xenograft tumor volume in NOD/SCID mice. It counts as in vivo, mouse. The conditions noted are these: single agent. Here is the method:
Every two weeks was a dosing cycle, and MIT (mitoxantrone) was intraperitoneally administered to the mice on the first day of the 3rd/5th/7th weeks. From the first day of the 5th week, the mice were intraperitoneally administered with SAE, […]. After the 8-week course of treatment, the mice were dissected for pathological identification and expression analysis.
All experimental mouse experiments were carried out in strict accordance with the relevant regulations of the Institutional Animal Care and Use Committee (IACUC), Shanghai Institutes for Biological Sciences, Chinese Academy of Sciences. Immuno-deficient mice (NOD-SCID mice, ICR) (body weight about 25 g) aged 6-8 weeks were used for animal experiments related to the present patent. Stromal cells PSC27 and epithelial cells PC3 were mixed at a predetermined ratio of 1:4, and each graft contained 1.25×10^6 cells for tissue remodeling. The xenograft tumors were implanted into mice by subcutaneous transplantation, and the animals were euthanized 8 weeks after the end of the transplantation surgery. Tumor volume was calculated according to the following formula: V=(π/6)×((1+w)/2)3 (V, volume; l, length; w, width).
In a preclinical treatment trial, subcutaneously transplanted mice were fed with a standard experimental diet, after 2 weeks chemotherapy drugs mitoxantrone (MIT, dose: 0.2 mg/kg) and/or SAE (500 μl, dose: 10 mg/kg) via intraperitoneal administration. The time points were: the former was administrated on the first day of the 3rd, 5th and 7th weeks, and the latter was administrated on the first day of the 5th and 7th weeks. A total of 3 cycles of MIT administration were carried out throughout the course of treatment, and each cycle lasted for 2 weeks. After the course of treatment, mouse tumors were harvested for volume measurement and histological analysis. Each mouse cumulatively received 0.6 mg/kg body weight of MIT and 30 mg/kg body weight of SAE. In order to cause systemic expression of SASP factors induced by chemotherapy, MIT was administered to mice through intravenous infusion according to the above steps and sequence, but the dose was reduced to 0.1 mg/kg body weight/each time (the cumulative dose of MIT received in the whole course of treatment was 0.3 mg/kg body weight) to reduce drug-related toxicity. The chemotherapy experiment ended at the end of the 8th week, and the mice were dissected immediately after sacrifice, and the xenograft tumors were collected and used for pathological system analysis.

Assay [3] relates to PSC27. The assay is described as follows: Flow cytometry apoptosis of PSC27. It counts as cell-based, human. The conditions noted are these: SAE. The text has this: Q2, distribution area of early apoptotic cells; Q3, distribution area of late apoptotic cells.
A general note: A flow cytometer gives signals particle by particle.

As to `O=C(/C=C/c1ccc(O)c(O)c1/C(=C\c1ccc(O)c(O)c1)C(=O)O[C@H](Cc1ccc(O)c(O)c1)C(=O)O)O[C@H](Cc1ccc(O)c(O)c1)C(=O)O` [SAE, salvianolic acid E], the “PD in proliferating cells” value with PSC27 [1] (SAE alone) was “does not affect PD”. For the same compound, the “population doubling (PD) ability of stromal cells after genotoxic treatment combined with SAE” value in the assay with PSC27 [1] (combination with genotoxic drug (BLEO) vs genotoxic drug alone) is given as “significant increase; also recorded: significantly increased”. In the assay on SASP (compared with 50 μM), the “inhibition of SASP development at lower or higher concentrations” value is on record as “less effective”. Besides, the “working concentration that inhibited SASP development with the greatest efficiency” value in the assay with SASP (concentration gradient, senescent PSC27) worked out at 50 µM. Moreover, in the assay with PC3/PSC27 tumors, the “median survival of tumor-bearing mice” value is “only a marginal extension of survival”. Also, in the assay on SASP factors, the “change of SASP factor expression when SAE was administered” value is listed as “largely reversed”. Also, the “tumor shrinkage by the agent itself” value in assay [2] is “did not cause tumor shrinkage”. Further, in the assay with PSC27 [3], the “change of proliferating cells” value is reported as “not obvious”, the “proportion of apoptosis of senescent PSC27 cells” value is recorded as “significantly increased” and the “viability of senescent PSC27 cells” value is listed as “significantly reduced”.

These data come from US20250295619A1, “Use of Salvianolic Acid E in the Preparation of Drugs Targeting Senescent Cells, Inhibiting Tumors or Extending Lifespan” (Shanghai Institute of Nutrition and Health, Chinese Academy …, priority 2024, published 2025).
